Marks after values point to notes of the source that are not given here. Residues, ends and D or L forms follow the SMILES beside them.
Experiments:
[1] = test system: Anti-BVVT-Ab (IgM); experiment: Anti-BVVT-Ab titers (IgM) in newborn rats after single treatment (hemagglutination); type: in vivo, Hannover Wistar rats (newborn); conditions: 1x/ip, n = 12, control 6.3 (TP5), 5.2 (TP3)
Protocol: (§1) Rats (Hannover Wistar) were treated (i.p.) within 6-12 hours after birth. Treatments after birth in a single session or in another examination • on the 7th day after the first treatment; • another group was vaccinated 3 times a week after the first day of […]. treatment • in a subsequent group treated over three weeks (9× in total) (10-3,10-5,10-7//10-9, 10-11,10-12, 10-13 M/animal, i.p). • in the fourth test series, the animals were treated with TP fragments at 0, 1, 2, 4, or 5 days of age. The rats were unanimously immunized on the 14th day after birth (1% BVVT with 0.5 ml cell suspension, i.p.). Immune responses were measured after 7 days on day 21 of the experiment.
(§2) Rats (Hannover Wistar) were treated (i.p.) within 6-12 hours after birth. Treatments after birth in a single session or in another examination • on the 7th day after the first treatment; • another group was vaccinated 3 times a week after the first day of treatment. • in a subsequent group, the treatments took place over three weeks (9× in total) (10-3,10-5,10-7//10-9, 10-11,10-12,10-13 M/animal, i.p.). • in the fourth test series, the animals were treated with TP fragments at 0, 1, 2, 4, or 5 days of age. The rats were randomly immunized on the 14th day after birth (1% BVVT with 0.5 ml cell suspension, i.p.). Immune responses were measured after 7 days on day 21 of the experiment. 1.2. Determination of anti-BVVT Ab titers (from rat blood samples ex vivo) • with the haemagglutination method (Takátsy and Fürész, 1955) on 96-well plates (Flow). 50 ul of 0.9% NaCl solution was added to each well. The sera (50 μl) were diluted by half dilution in 12 steps, mixed with 25 pμl 2% BVVT cell suspension, and incubated (1 hour at 37 °C). The hemagglutination titers of the sera are determined. Values expressed in logarithmic values refer to total agglutination.

[2] = test system: PFC (plaque-forming cells); experiment: PFC (plaque-forming cells) in H. Wistar rats; type: in vivo, Hannover Wistar rats (newborn); conditions: for PFC (plaque-forming cells): 1x/ip, control 53.9 ± 8.8; for PFC (plaque-forming cells) / number of PFC: n = 12; for number of PFC: 9x (3x3 weeks/ip), control 139 ± 12.7
Protocol: as §1, §2
1.3./Determination of the number of plaque-forming cells (PFC) (using rat spleen cells) The chopped splenocytes were placed in a culture medium (Parker 199) and then shaken with a shaker for 1 minute. The cells were suctioned from the surface of the rapidly settling tissue debris. Red blood cells were removed osmotically. Cell suspensions were adjusted to 107/ml. The cell suspensions were mixed with a 15% BVVT cell suspension in a ratio of 2:1. PFC was determined with the mixture using a modified chamber technique according to Channingham et al., 1966). Before filling the chamber, 50 μl of fresh diluted guinea pig serum (1:20) was added. The chambers (2-2/slide) were incubated (370C 45′) after sealing with paraffin, the formed plaques were counted under a microscope (at 400× magnification) within 2 hours Marker tests related to the rejection reaction of an adult thymus-depleted mouse skin graft 1.4./Rejection of skin transplants in nude mice after treatment with TP fragments (Snell et al., Transplantation 5, 492, 1967).

[3] = test system: peritoneal macrophages; experiment: Phagocytic function of peritoneal macrophages ex vivo in CFLP outbred mice (CY-immunosuppressed); conditions: for macrophage phagocytosis ex vivo: CY-treated mice, n = 15, untreated control 194.5, CY 111.5
Text: 6.2./Examination of the Effect on the Phagocytic Function of Peritoneal Macrophages CFLP Outbred in Mice
Macrophage phagocytosis ex vivo (X=yeast/100 cells)

[4] = test system: Thy1+, Lyt 1+ (helper) and Lyt 2+ (suppressor) cells; experiment: Thy1+ cells and helper/suppressor (Lyt 1/Lyt 2) cell ratio in bone marrow and spleen of Balb/c nu/nu mice; type: in vivo; conditions: for Lyt 1/Lyt 2 (helper/suppressor cell ratio) / Thy1+ (%): 10^-5 M/mice/ip every other day for 3 weeks (9x)
Protocol: • D.1/Direct cytotoxicity test/for the detection of Thy, Lyt antigens (Fathman 1979, in Immunol Meth I. Eds. Lefkovits, Pernis, Acad Press, New York, pp. 212-213.) was used. Subpopulation ratios were determined from bone marrow cells, thymus, and spleen cells isolated from the lymphatic organs of mice. The cell suspensions (1.087-1.088 g/cm3) were centrifuged ona density gradient (2000 rpm, 20 minutes), and the cells were washed 3× with RPMI1640 medium containing 0.3% BSA, then adjusted to 107/ml. Thyl, Lyt 1, Lyt2 monoclonal antibodies (McAb/Ando I. (ICRF Human Tumor Immunol. UCM Med Sch. London) were obtained. 25 μl McAb and 25 ul cell suspension were incubated (60′, 40C1), after centrifugation (1250 rpm 10′), the cells were resuspended with 40 μul of diluted (1:50) rabbit complement, then incubated (370C, 60′). The cell suspensions were stained with 1:5 dilution of Eosin Y (Jansen). the ratio of live to non-living cells was determined.
n=8/group; Treatment: 10^-5 M/mice/ip every other day for 3 weeks (9×/ip.)

[5] = test system: tumour patients (metastatic melanoma); conditions: 26 studies, 2,736 patients, in words, cited from earlier work
[6] = 12-24 months, Friedmann 1985, in words; cited from earlier work

CC(C)[C@H](NC(=O)[C@H](CC(=O)O)NC(=O)[C@H](CCCCN)NC(=O)[C@@H](N)CCCN=C(N)N)C(=O)N[C@@H](Cc1ccc(O)cc1)C(=O)O [TP5] (H-RKDVY-OH)
Anti-BVVT-Ab titers (IgM) ([1]; 10^-3 M/animal): 7.6 2 log
Anti-BVVT-Ab titers (IgM) ([1]; 10^-4 M/animal): 8.1* 2 log
Anti-BVVT-Ab titers (IgM) ([1]; 10^-5 M/animal): 8.6* 2 log
Anti-BVVT-Ab titers (IgM) ([1]; 10^-6 M/animal): 8.5* 2 log
Anti-BVVT-Ab titers (IgM) ([1]; 10^-9 M/animal): 8.0* 2 log
Anti-BVVT-Ab titers (IgM) ([1]; 10^-11 M/animal): 7.7 2 log
Anti-BVVT-Ab titers (IgM) ([1]; 10^-13 M/animal): 7.0 2 log
PFC (plaque-forming cells) ([2]; 10^-6 M/animal): 71
number of PFC ([2]; 10^-6 M/animal): 159
PFC (plaque-forming cells) ([2]; 10^-7 M/animal): 129*
number of PFC ([2]; 10^-7 M/animal): 203*
PFC (plaque-forming cells) ([2]; 10^-8 M/animal): 148*
number of PFC ([2]; 10^-8 M/animal): 223*
PFC (plaque-forming cells) ([2]; 10^-9 M/animal): 90*
number of PFC ([2]; 10^-9 M/animal): 126
PFC (plaque-forming cells) ([2]; 10^-10 M/animal): 76
number of PFC ([2]; 10^-10 M/animal): 185*
PFC (plaque-forming cells) ([2]; 10^-11 M/animal): 75
number of PFC ([2]; 10^-11 M/animal): 162
PFC (plaque-forming cells) ([2]; 10^-13 M/animal): 67
number of PFC ([2]; 10^-13 M/animal): 143
potency TP3 versus TP5 (PFC) ([2]; comparison, in words): TP3=TP5 potency
phagocytic activity of macrophages ([3]; CY immunosuppression, 1.0 mg/kg/sc (TP3), in words): ineffective
macrophage phagocytosis ex vivo ([3]; TP dose 0.1 (mg/kg/sc)): 149.6 yeast/100 cells
macrophage phagocytosis ex vivo ([3]; TP dose 1.0 (mg/kg/sc)): 123.1 yeast/100 cells
macrophage phagocytosis ex vivo ([3]; TP dose 10.0 (mg/kg/sc)): 95.6 yeast/100 cells
Lyt 1/Lyt 2 (helper/suppressor cell ratio) ([4]; bone marrow (Csontvelő), control 0.97): 1.95
Thy1+ (%) ([4]; bone marrow (Csontvelő), control 3.7): 47.3%
Lyt 1/Lyt 2 (helper/suppressor cell ratio) ([4]; spleen (Lép), control 1.10): 2.48
Thy1+ (%) ([4]; spleen (Lép), control 5.4): 71.0%
change in the spleen ([4]; spleen, 10^-5 M/mice/ip, 9x): 130%
severe infections ([5]; in parallel with radiation or chemotherapy): promising results in reducing severe infections
number of survivors [5]: not significantly affected
safety in patients [6]: well-used, safe drug candidate
